Measurements from patent US8716473B2, “Substituted benzotriazines and quinoxalines as inhibitors of P7OS6 kinase” (Sentinel Oncology Limited, priority 2009, dated 2014).
Counter-ions that a name gives are not always drawn.

Experiments:
[1] = target: p70S6K (h) (Homo sapiens, UniProt P23443); experiment: Determination of p70S6 inhibitory activity (radiometric 33P-ATP filter assay); assay type: biochemical; settings: 40 min at room temperature, read-out: IC50 against P70S6 kinase
Experimental: The ability of compounds of the invention to inhibit P70S6 kinase was determined using the protocol below.
• 20 mM MOPS, 1 mM EDTA, 0.01% Brij-35, 5% Glycerol, 0.1% b-mercaptoethanol, 1 mg/mL BSA Method: • p70S6K (h)
In a final reaction volume of 25 μL, p70S6K (h) (5-10 mU) is incubated with 8 mM MOPS pH 7.0, 0.2 mM EDTA, 100 μM KKRNRTLTV, 10 mM Mg acetate and [γ-33P-ATP] (specific activity approx. 500 cpm/pmol, concentration as required). The reaction is initiated by the addition of the MgATP mix. After incubation for 40 minutes at room temperature, the reaction is stopped by the addition of 5 μL of a 3% phosphoric acid solution. 10 μL of the reaction mixture is then spotted onto a P30 filtermat and washed three times for 5 minutes in 75 mM phosphoric acid and once in methanol prior to drying and scintillation counting.

[2] = tested on: phosphorylation of S6 Ser235/236 in MCF-7 cells; experiment: Inhibition of P70S6K activity in whole cells: phospho-S6 ELISA in MCF-7 cells; assay type: cell-based; settings: Homo sapiens, MCF7, 2 h incubation, 1% FBS
Experimental: The following assay provides IC50 values for inhibition of P70S6K activity in a whole cell assay by determining effects on the phosphorylation of S6^Ser235/236 in MCF-7 cells by ELISA.
The following protocol was used: • 1) MCF-7 cells were seeded in 96-well plates at a density of 7×10^3 cells per well and allowed to adhere for 6 h in media containing 10% FBS. • 2) The full serum media was replaced and cells incubated overnight in media containing 1% FBS, prior to addition of test compounds. • 3) Test compounds were prepared from 10 mM or 5 mM (BEZ-235) DMSO stocks to give final concentration ranges as indicated on graphs. DMSO was constant at a final concentration of 1%. • 4) Test compounds were incubated with cells in duplicate for 2 h at 37° C./5% CO2 in a humidified atmosphere. • 5) The media was removed and cells were lysed by freeze-thawing in cell lysis buffer. • 6) Detection of phosphorylated S6Ser235/236 was then carried out using a PathScan ELISA kit (Cell Signaling Technology #7205). • 7) Lysates were diluted 1:1 with sample diluent before being applied to wells coated with an antibody against phosphorylated-S6 protein. • 8) The ELISA was then performed as stated in the manufacturers' instructions. • 9) The raw data were normalised to control values and analysed using a 4-parameter logistic equation in GraphPad Prism.

[3] = tested on: MCF-7 cells; experiment: MCF-7 proliferation assay (Alamar blue); assay type: cell-based; settings: Homo sapiens, MCF7, 72 h incubation, read-out: IC50 for inhibition of cell growth
Experimental: The following assay was used to determine the ability of test compounds to inhibit cell growth.
The following protocol was used: • 1) MCF-7 cells were seeded in 96-well plates at 5000 cells per well and allowed to adhere overnight prior to addition of compound or vehicle control. • 2) Test compounds were prepared from 10 mM DMSO stocks to give a final concentration range of 100 μM, 30 μM, 10 μM, 3 μM, 1 μM, 0.3 μM, 0.1 μM, 0.03 μM, 0.01 μM and vehicle control. The DMSO content was constant at 1%. • 3) Test compounds were incubated with the cells for 72 h at 37° C. 5% CO2 in a humidified atmosphere. • 4) Alamar blue 10% (v/v) was then added and incubated for a further 6 h, and fluorescent product detected using the BMG FLUOstar plate reader. • 5) Data were analysed using a 4-parameter logistic equation in Graph Pad Prism.

Sequence of p70S6K (h) (P23443 whole entry): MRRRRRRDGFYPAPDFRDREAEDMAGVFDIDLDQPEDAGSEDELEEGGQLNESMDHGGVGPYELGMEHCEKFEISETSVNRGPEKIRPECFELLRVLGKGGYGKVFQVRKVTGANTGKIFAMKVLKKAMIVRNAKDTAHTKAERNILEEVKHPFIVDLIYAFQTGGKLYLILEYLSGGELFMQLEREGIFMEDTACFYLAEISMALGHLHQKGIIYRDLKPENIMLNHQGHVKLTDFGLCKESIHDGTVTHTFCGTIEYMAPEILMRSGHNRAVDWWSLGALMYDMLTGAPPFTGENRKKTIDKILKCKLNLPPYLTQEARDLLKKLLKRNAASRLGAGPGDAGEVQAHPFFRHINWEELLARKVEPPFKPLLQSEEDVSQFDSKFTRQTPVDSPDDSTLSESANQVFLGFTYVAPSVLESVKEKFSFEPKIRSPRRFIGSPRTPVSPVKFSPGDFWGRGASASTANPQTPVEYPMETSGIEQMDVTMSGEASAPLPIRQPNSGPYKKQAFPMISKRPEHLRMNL

| IC50 [1] | IC50 [2] | IC50 [3] | SMILES |
| --- | --- | --- | --- |
| < 0.1 µM | < 5 µM | < 20 µM | CN(Cc1ccccc1)c1cnc2cc(-c3cn[nH]c3)ccc2n1 [Example 2, Benzyl-methyl-[6-(1H-pyrazol-4-yl)-quinoxalin-2-yl]-amine hydrochloride] |
| < 0.1 µM | < 1 µM | < 50 µM | COc1cccc(CN(C)c2cnc3cc(-c4cn[nH]c4)ccc3n2)c1 [Example 27, (3-Methoxy-benzyl)-methyl-[6-(1H-pyrazol-4-yl)-quinoxalin-2-yl]-amine] |
| < 0.1 µM | < 5 µM | < 50 µM | CN(Cc1ccc(F)cc1)c1cnc2cc(-c3cn[nH]c3)ccc2n1 [Example 21, (4-Fluoro-benzyl)-methyl-[6-(1H-pyrazol-4-yl)-quinoxalin-2-yl]-amine] |
| < 0.1 µM | < 5 µM | < 10 µM | Fc1ccc(CNc2cnc3cc(-c4cn[nH]c4)ccc3n2)cc1 [Example 11, (4-Fluoro-benzyl)-[6-(1H-pyrazol-4-yl)-quinoxalin-2-yl]-amine hydrochloride] |

The next lines start with the molecule.

| SMILES | IC50 [1] | IC50 [2] | IC50 [3] |
| --- | --- | --- | --- |
| Fc1ccc(CNc2cnc3cc(-c4cn[nH]c4)ccc3n2)cc1F [Example 32, (3,4-Difluoro-benzyl)-[6-(1H-pyrazol-4-yl)-quinoxalin-2-yl]-amine] | < 0.1 µM | < 5 µM | < 50 µM |
| OCCN(Cc1ccccc1)c1cnc2cc(-c3cn[nH]c3)ccc2n1 [Example 3, 2-{Benzyl-[6-(1H-pyrazol-4-yl)-quinoxalin-2-yl]-amino}-ethanol] | < 0.1 µM | < 5 µM | < 20 µM |
| COc1cccc(CNc2cnc3cc(-c4cn[nH]c4)ccc3n2)c1 [Example 18, (3-Methoxy-benzyl)-[6-(1H-pyrazol-4-yl)-quinoxalin-2-yl]-amine] | < 0.1 µM | < 1 µM | < 10 µM |
| Clc1cccc(CNc2cnc3cc(-c4cn[nH]c4)ccc3n2)c1 [Example 9, (3-Chloro-benzyl)-[6-(1H-pyrazol-4-yl)-quinoxalin-2-yl]-amine] | < 0.1 µM | < 1 µM | < 20 µM |
